Data published in patent US9090599B2, “Heteroarylmethyl amides” (Hoffman-La Roche Inc., priority 2010, dated 2015).
Like-named read-outs stand apart in the source and are kept apart here.

Assays:
human CB1 receptor = biological target: T1, human CB1 receptor (Homo sapiens, UniProt P21554); assay: CB1 receptor affinity, [3H]-CP-55,940 displacement, HEK cell membranes; format: binding; conditions: read-out: CB1 receptor affinity [% inhibition @ 10 μM]
T1 construct: expressed in transfected cells; host or cells: human embryonic kidney (HEK) cells, Semliki Forest Virus system, membrane preparations
Description: (§1) The affinity of the compounds of the invention for cannabinoid receptors was determined using membrane preparations of human embryonic kidney (HEK) cells in which the human CB1 receptor is transiently transfected using a Semliki Forest Virus system in conjunction with [3H]-CP-55,940 as radioligand. After incubation of freshly prepared cell membrane preparation with the [^3H]-ligand, with or without addition of compounds of the invention, separation of bound and free ligand was performed by filtration over glass fiber filters. Radioactivity on the filter was measured by scintillation counting.
(§2) The ability of the compounds to displace the radioligand [^3H]-CP-55,940 was measured at a concentration of 10 μM and values provided as [% inhibition @ 10 μM] both for the CB 1 and CB2 receptor assay, The lower % inhibition is, the lower the likelihood of side effects based on CB1 or CB2 receptor inhibition is.

human CB2 receptor = biological target: T2, human CB2 receptor (Homo sapiens, UniProt P34972); assay: CB2 receptor affinity, [3H]-CP-55,940 displacement, HEK cell membranes; format: binding; conditions: 10 μM compound, radioligand [3H]-CP-55,940
T2 construct: expressed in transfected cells; host or cells: human embryonic kidney (HEK) cells, Semliki Forest Virus system, membrane preparations
Description: as §1, with “cannabinoid CB2” for “cannabinoid”, “CB2” for “CB1”, “[^3H]-CP-55,940” for “[3H]-CP-55,940”
as §2

[1] = 10 μM compound, radioligand [3H]-CP-55,940

T2 sequence (P34972 whole entry): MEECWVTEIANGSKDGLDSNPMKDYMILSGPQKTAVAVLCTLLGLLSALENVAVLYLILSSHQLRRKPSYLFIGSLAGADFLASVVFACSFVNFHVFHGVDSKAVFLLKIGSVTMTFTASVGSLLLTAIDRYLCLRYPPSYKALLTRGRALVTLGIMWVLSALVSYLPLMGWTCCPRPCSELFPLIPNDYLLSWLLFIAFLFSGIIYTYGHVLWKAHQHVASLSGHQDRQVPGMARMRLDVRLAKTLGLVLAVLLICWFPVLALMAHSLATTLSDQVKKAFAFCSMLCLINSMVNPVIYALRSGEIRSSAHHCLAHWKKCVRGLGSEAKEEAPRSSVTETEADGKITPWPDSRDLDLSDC
T1 sequence (P21554 whole entry): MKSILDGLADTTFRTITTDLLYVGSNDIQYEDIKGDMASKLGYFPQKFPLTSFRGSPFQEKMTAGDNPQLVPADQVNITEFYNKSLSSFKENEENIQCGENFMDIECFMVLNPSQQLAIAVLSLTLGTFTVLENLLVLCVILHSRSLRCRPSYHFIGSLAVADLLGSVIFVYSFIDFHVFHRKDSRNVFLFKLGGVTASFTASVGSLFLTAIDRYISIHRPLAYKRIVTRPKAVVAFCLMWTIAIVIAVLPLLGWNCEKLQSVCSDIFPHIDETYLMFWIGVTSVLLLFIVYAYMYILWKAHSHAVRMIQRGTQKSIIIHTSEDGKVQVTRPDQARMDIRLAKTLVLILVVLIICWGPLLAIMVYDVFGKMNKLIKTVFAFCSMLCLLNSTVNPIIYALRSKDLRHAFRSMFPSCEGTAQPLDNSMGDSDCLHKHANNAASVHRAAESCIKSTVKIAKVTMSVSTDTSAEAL

| Compound | inhibition at 10 µM (human CB1 receptor; [1]) [%] | inhibition at 10 µM (human CB2 receptor) [%] | inhibition at 10 µM (human CB1 receptor) [%] |
| --- | --- | --- | --- |
| O=C(NCc1nc(C(F)(F)F)no1)c1cnc(OC[C@H]2CCOC2)c(-c2ccc(Cl)cc2)c1 (stereo in doubt) [Example 104] | 39 | 9 |  |
| O=C(NCc1nc(C(F)(F)F)no1)c1cnc(OC[C@@H]2CCOC2)c(-c2ccc(Cl)cc2)c1 (stereo in doubt) [Example 105, 5-(4-Chloro-phenyl)-6-[(RS)-1-(tetrahydro-furan-3-yl)methoxy]-N-(3-trifluoromethyl-[1,2,4]oxadiazol-5-ylmethyl)-nicotinamide] | 47 | 17 |  |
| CCc1nc(CNC(=O)c2cnc(OCC3CC3)c(-c3ccc(Cl)cc3)c2)cs1 [Example 10, 5-(4-chloro-phenyl)-6-cyclopropylmethoxy-N-(2-ethyl-thiazol-4-ylmethyl)-nicotinamide] | 28 | 28 |  |
| O=C(NCc1noc(C2CC2)n1)c1ncc(OCC2CC2)c(-c2ccc(Cl)cc2)n1 [Example 13, 4-(4-chloro-phenyl)-5-cyclopropylmethoxy-pyrimidine-2-carboxylic acid (5-cyclopropyl-[1,2,4]oxadiazol-3-ylmethyl)-amide] | 35 | 46 |  |
| O=C(NCc1nc(C(F)(F)F)no1)c1ncc(OCC(F)(F)F)c(-c2ccc(Cl)cc2)n1 [Example 16, 4-(4-chloro-phenyl)-5-(2,2,2-trifluoro-ethoxy)-pyrimidine-2-carboxylic acid (3-trifluoromethyl-[1,2,4]oxadiazol-5-ylmethyl)-amide] | 38 | 15 |  |
| O=C(NCc1nc(C2CC2)no1)c1ncc(OCC2CC2)c(-c2ccc(Cl)cc2)n1 [Example 17, 4-(4-chloro-phenyl)-5-cyclopropylmethoxy-pyrimidine-2-carboxylic acid (3-cyclopropyl-[1,2,4]oxadiazol-5-ylmethyl)-amide] | 48 | 45 |  |
| Cc1cc(CNC(=O)c2cc(-c3ccc(Cl)cc3)c(OCC(F)(F)F)cn2)no1 [Example 19, 4-(4-chlorophenyl)-N-((5-methylisoxazol-3-yl)methyl)-5-(2,2,2-trifluoro-ethoxy)picolinamide] | 30 | 43 |  |
| O=C(NCc1nc(C(F)(F)F)no1)c1cc(-c2ccc(Cl)cc2)c(OCC2CC2)nn1 [Example 20, 5-(4-chloro-phenyl)-6-cyclopropylmethoxy-pyridazine-3-carboxylic acid (3-trifluoromethyl-[1,2,4]oxadiazol-5-ylmethyl)-amide] | 33 | 34 |  |
| O=C(NCc1nc(C(F)(F)F)no1)c1ncc(OCC2CC2)c(-c2ccc(Cl)cc2)n1 [Example 21, 4-(4-chloro-phenyl)-5-cyclopropylmethoxy-pyrimidine-2-carboxylic acid (3-trifluoromethyl-[1,2,4]oxadiazol-5-ylmethyl)-amide] | 44 | 35 |  |
| Cn1cc(Cl)c(CNC(=O)c2cnc(OCC(F)(F)F)c(-c3ccc(Cl)cc3)c2)n1 [Example 26, N-(4-Chloro-1-methyl-1H-pyrazol-3-ylmethyl)-5-(4-chloro-phenyl)-6-(2,2,2-trifluoro-ethoxy)-nicotinamide] | 40 | 22 |  |
| O=C(NCc1cc(C2CC2)on1)c1cnc(OCC2CC2)c(-c2ccc(Cl)cc2)c1 [Example 30, 5-(4-chloro-phenyl)-N-(5-cyclopropyl-isoxazol-3-ylmethyl)-6-cyclopropyl-methoxy-nicotinamide] | 48 | 38 |  |
| CC(C)c1cc(CNC(=O)c2cnc(OCC3CC3)c(-c3ccc(Cl)cc3)c2)no1 [Example 32, 5-(4-chlorophenyl)-6-(cyclopropylmethoxy)-N-((5-isopropylisoxazol-3-yl)methyl)nicotinamide] | 47 | 26 |  |
| O=C(NCc1cc(C2CC2)no1)c1cc(-c2ccc(Cl)cc2)c(OCC(F)(F)F)cn1 [Example 33, 4-(4-chlorophenyl)-N-((3-cyclopropylisoxazol-5-yl)methyl)-5-(2,2,2-trifluoroethoxy)picolinamide] | 33 | 26 |  |
| C[C@H](Oc1cnc(C(=O)NCc2nc(C(F)(F)F)no2)nc1-c1ccc(Cl)cc1)C(F)(F)F [Example 35, (S)-4-(4-chlorophenyl)-N-((3-(trifluoromethyl)-1,2,4-oxadiazol-5-yl)methyl)-5-(1,1,1-trifluoropropan-2-yloxy)pyrimidine-2-carboxamide] | 50 | 22 |  |
| C[C@H](Oc1ncc(C(=O)NCc2nc(C(F)(F)F)no2)nc1-c1ccc(Cl)cc1)C(F)(F)F [Example 36, (S)-6-(4-chlorophenyl)-N-((3-(trifluoromethyl)-1,2,4-oxadiazol-5-yl)methyl)-5-(1,1,1-trifluoropropan-2-yloxy)pyrazine-2-carboxamide] | 36 | 14 |  |
| COc1cc(CNC(=O)c2cc(-c3ccc(Cl)cc3)c(O[C@@H](C)C(F)(F)F)cn2)on1 [Example 37, (S)-4-(4-chlorophenyl)-N-((3-methoxyisoxazol-5-yl)methyl)-5-(1,1,1-trifluoropropan-2-yloxy)picolinamide] | 40 | 20 |  |
| CC(C)c1nc(CNC(=O)c2cc(-c3ccc(Cl)cc3)c(OCC(F)(F)F)cn2)no1 [Example 39, 4-(4-chlorophenyl)-N-((5-isopropyl-1,2,4-oxadiazol-3-yl)methyl)-5-(2,2,2-trifluoroethoxy)picolinamide] | 26 | 21 |  |
| CC(C)c1noc(CNC(=O)c2cc(-c3ccc(Cl)cc3)c(OCC(F)(F)F)cn2)n1 [Example 40, 4-(4-chlorophenyl)-N-((3-isopropyl-1,2,4-oxadiazol-5-yl)methyl)-5-(2,2,2-trifluoroethoxy)picolinamide] | 29 | 19 |  |
| O=C(NCc1noc(C2CC2)n1)c1cc(-c2ccc(Cl)cc2)c(OCC(F)(F)F)nn1 [Example 41, 5-(4-chloro-phenyl)-6-(2,2,2-trifluoro-ethoxy)-pyridazine-3-carboxylic acid (5-cyclopropyl-[1,2,4]oxadiazol-3-ylmethyl)-amide] | 23 | 19 |  |
| CC(C)c1cc(CNC(=O)c2cc(-c3ccc(Cl)cc3)c(OCC(F)(F)F)nn2)on1 [Example 43, 5-(4-chloro-phenyl)-6-(2,2,2-trifluoro-ethoxy)-pyridazine-3-carboxylic acid (3-isopropyl-isoxazol-5-ylmethyl)-amide] | 37 | 14 |  |
| O=C(NCc1cc(C(F)(F)F)on1)c1cc(-c2ccc(Cl)cc2)c(OCC(F)(F)F)cn1 [Example 45, 4-(4-chlorophenyl)-5-(2,2,2-trifluoroethoxy)-N-((5-(trifluoromethyl)isoxazol-3-yl)methyl)picolinamide] |  | -2 | 37 |
| O=C(NCc1cc(C2CC2)no1)c1ccc(OCC(F)(F)F)c(-c2ccc(Cl)cc2)n1 [Example 47, 6-(4-chloro-phenyl)-5-(2,2,2-trifluoro-ethoxy)-pyridine-2-carboxylic acid (3-cyclopropyl-isoxazol-5-ylmethyl)-amide] | 46 | 16 |  |
| O=C(NCc1cc(C2CC2)no1)c1cc(-c2ccc(Cl)cc2)c(OCC(F)(F)F)nn1 [Example 49, 5-(4-Chloro-phenyl)-6-(2,2,2-trifluoro-ethoxy)-pyridazine-3-carboxylic acid (3-cyclopropyl-isoxazol-5-ylmethyl)-amide] | 36 | 13 |  |
| O=C(NCc1cc(C(F)(F)F)on1)c1cnc(OCC(F)(F)F)c(-c2ccc(Cl)cc2)c1 [Example 50, 5-(4-chloro-phenyl)-6-(2,2,2-trifluoro-ethoxy)-N-(5-trifluoromethyl-isoxazol-3-ylmethyl)-nicotinamide] | 38 | -5 |  |
| CC(C)c1nc(CNC(=O)c2cnc(OCC3CC3)c(-c3ccc(Cl)cc3)c2)no1 [Example 51] | 47 | 2 |  |
| CC(C)c1nc(CNC(=O)c2ccc(OCC3CC3)c(-c3ccc(Cl)cc3)n2)cs1 [Example 52, 6-(4-chloro-phenyl)-5-cyclopropylmethoxy-pyridine-2-carboxylic acid (2-isopropyl-thiazol-4-ylmethyl)-amide] | 38 | 43 |  |
| CC(C)c1cc(CNC(=O)c2ccc(OCC(F)(F)F)c(-c3ccc(Cl)cc3)n2)no1 [Example 53, 6-(4-chloro-phenyl)-5-(2,2,2-trifluoro-ethoxy)-pyridine-2-carboxylic acid (5-isopropyl-isoxazol-3-ylmethyl)-amide] | 43 | 23 |  |
| CC(C)(C)c1nc(CNC(=O)c2cc(-c3ccc(Cl)cc3)c(OCC(F)(F)F)nn2)cs1 [Example 65, 5-(4-chloro-phenyl)-6-(2,2,2-trifluoro-ethoxy)-pyridazine-3-carboxylic acid (2-tert-butyl-thiazol-4-ylmethyl)-amide] | 18 |  |  |
